In US20130190289A1, “COMPOUNDS AND METHODS FOR THE TREATMENT OR PREVENTION OF FLAVIVIRUS INFECTIONS” (priority 2010, published 2013) one finds CC50 and IC50 data, which are given here for 18 molecules.

Molecules are shown by their SMILES. Some results are limits rather than exact numbers.

Series [1] can be described thus: [3H]Thymidine incorporation assay (cell toxicity). The following applies: human. For orientation: Uptake of a labelled nucleoside into DNA is a usual measure of proliferation.
The test system of series [2] is HCV replicon (genotype 1b) in Huh7 cell line ET. Kind of series: microbe, parasite or virus in culture. Format: cell-based, HCV genotype 1b. The following applies: Hepatitis C virus, Huh-7, read-out: HCV-Replicon-(Luci-ET) 1b_IC50. For orientation: A replicon is a self-replicating genome or part of one, used to study replication in cells.

In series [1], `CC(C(=O)N(C)C)N(c1cc(C#CC(C)(C)C)sc1C(=O)O)C(=O)[C@H]1CC[C@H](C)CC1` (relative stereo) [Compound 7, 5-(3,3-Dimethyl-but-1-ynyl)-3-[(1-dimethylcarbamoyl-ethyl)-(trans-4-methyl-cyclohexanecarbonyl)-amino]-thiophene-2-carboxylic acid] displayed a CC50 at 72 h of 10 to 100 µM. Further, the IC50 in series [2] was below 0.1 µM.

In the case of `CC(CC(=O)N(C)C)N(c1cc(C#CC(C)(C)C)sc1C(=O)O)C(=O)[C@H]1CC[C@H](C)CC1` (relative stereo) [Compound 99, 3-[[3-(Dimethylamino)-1-methyl-3-oxo-propyl]-(trans-4-methylcyclohexanecarbonyl)amino]-5-(3,3-dimethylbut-1-ynyl)thiophene-2-carboxylic acid], the CC50 at 72 h in series [1] lay in the range of 10 to 100 µM. For the same molecule, in series [2], the IC50 is below 0.1 µM.

In turn, `CC(CC(=O)N1CCCC1)N(c1cc(C#CC(C)(C)C)sc1C(=O)O)C(=O)[C@H]1CC[C@H](C)CC1` (relative stereo) [Compound 101, 5-(3,3-dimethylbut-1-yn-1-yl)-3-((trans)-4-methyl-N-(4-oxo-4-(pyrrolidin-1-yl)butan-2-yl)cyclohexanecarboxamido)thiophene-2-carboxylic acid] gave a CC50 at 72 h in series [1] of 10 to 100 µM. In addition, in series [2], the IC50 was below 0.1 µM.

Regarding `CC(CN(c1cc(C#CC(C)(C)C)sc1C(=O)O)C(=O)[C@H]1CC[C@H](C)CC1)C(=O)N1CCOCC1` (relative stereo) [Compound 104, 5-(3,3-Dimethylbut-1-ynyl)-3-[(trans-4-methylcyclohexanecarbonyl)-(2-methyl-3-morpholino-3-oxo-propyl)amino]thiophene-2-carboxylic acid], the CC50 at 72 h in series [1] is above 100 µM. Also, the IC50 in series [2] is below 0.1 µM.

As to `CN1CC(N(c2cc(C#CC(C)(C)C)sc2C(=O)O)C(=O)[C@H]2CC[C@H](C)CC2)CC1=O` (relative stereo) [Compound 107, 5-(3,3-Dimethylbut-1-ynyl)-3-[(trans-4-methylcyclohexanecarbonyl)-(1-methyl-5-oxo-pyrrolidin-3-yl)amino]thiophene-2-carboxylic acid], in series [1], the half-maximal cytotoxic concentration (CC50) at 72 h was above 100 µM. Also, the IC50 in series [2] was below 0.1 µM.

For `CC1CCC(C(=O)N(c2cc(C#CC(C)(C)C)sc2C(=O)O)[C@@H]2CCN(C)C2=O)CC1` (single isomer, unassigned) [Compound 92], the CC50 at 72 h in series [1] was above 100 µM. Besides, the IC50 in series [2] was below 0.1 µM.

For the molecule `CNC(=O)CN(c1cc(C#CC(C)(C)C)sc1C(=O)O)C(=O)[C@H]1CC[C@H](C)CC1` [Compound 1, 5-(3,3-dimethylbut-1-ynyl)-3-[[2-(methylamino)-2-oxo-ethyl]-(trans-4-methylcyclohexanecarbonyl)amino]thiophene-2-carboxylic acid], the CC50 at 72 h in series [1] is 10 to 100 µM. In series [2], the IC50 is below 0.1 µM.

On to `C[C@H](C(=O)N(C)C)N(c1cc(C#CC(C)(C)C)sc1C(=O)O)C(=O)[C@H]1CC[C@H](C)CC1` [Compound 2, 5-(3,3-Dimethyl-but-1-ynyl)-3-[((R)-1-dimethylcarbamoyl-ethyl)-(trans-4-methyl-cyclohexanecarbonyl)-amino]-thiophene-2-carboxylic acid], for which the CC50 at 72 h in series [1] was in the range of 10 to 100 µM. The IC50 in series [2] was below 0.1 µM.

`CCN(CC)C(=O)[C@H](C)N(c1cc(C#CC(C)(C)C)sc1C(=O)O)C(=O)[C@H]1CC[C@H](C)CC1` [Compound 8, 3-[[(1S)-2-(diethylamino)-1-methyl-2-oxo-ethyl]-(trans-4-methylcyclohexanecarbonyl)amino]-5-(3,3-dimethylbut-1-ynyl)thiophene-2-carboxylic acid] showed a cytotoxic concentration (CC50) at 72 h in series [1] above 100 µM. Moreover, in series [2], the IC50 was below 0.1 µM.

In series [1], `C[C@@H](C(=O)N1CCCC1)N(c1cc(C#CC(C)(C)C)sc1C(=O)O)C(=O)[C@H]1CC[C@H](C)CC1` [Compound 9, 5-(3,3-Dimethylbut-1-ynyl)-3-[(trans-4-methylcyclohexanecarbonyl)-[(1S)-1-methyl-2-oxo-2-pyrrolidin-1-yl-ethyl]amino]thiophene-2-carboxylic acid] came in with a CC50 at 72 h above 100 µM. The IC50 in series [2] was below 0.1 µM.

On to `C[C@@H](C(=O)NC1CCCC1)N(c1cc(C#CC(C)(C)C)sc1C(=O)O)C(=O)[C@H]1CC[C@H](C)CC1` [Compound 18, 3-[[(1S)-2-(Cyclopentylamino)-1-methyl-2-oxo-ethyl]-(trans-4-methylcyclohexanecarbonyl)amino]-5-(3,3-dimethylbut-1-ynyl)thiophene-2-carboxylic acid], for which, in series [1], the cytotoxic concentration (CC50) at 72 h fell in the range of 10 to 100 µM. Further, the IC50 in series [2] is below 0.1 µM.

Molecule `C[C@@H](C(=O)NC1CCOCC1)N(c1cc(C#CC(C)(C)C)sc1C(=O)O)C(=O)[C@H]1CC[C@H](C)CC1` [Compound 19, 5-(3,3-Dimethylbut-1-ynyl)-3-[(trans-4-methylcyclohexanecarbonyl)-[(1S)-1-methyl-2-oxo-2-(tetrahydropyran-4-ylamino)ethyl]amino]thiophene-2-carboxylic acid] had a CC50 at 72 h in series [1] above 100 µM. The IC50 in series [2] is below 0.1 µM.

In the case of `C[C@@H](C(=O)N1CCC(O)CC1)N(c1cc(C#CC(C)(C)C)sc1C(=O)O)C(=O)[C@H]1CC[C@H](C)CC1` [Compound 20, 5-(3,3-Dimethylbut-1-ynyl)-3-[[(1S)-2-(4-hydroxy-1-piperidyl)-1-methyl-2-oxo-ethyl]-(trans-4-methylcyclohexanecarbonyl)amino]thiophene-2-carboxylic acid], the cytotoxic concentration (CC50) at 72 h in series [1] was above 100 µM. Besides, the IC50 in series [2] was below 0.1 µM.

`COC[C@H](C(=O)N(C)C)N(c1cc(C#CC(C)(C)C)sc1C(=O)O)C(=O)[C@H]1CC[C@H](C)CC1` [Compound 22, 3-[[(1R)-2-(dimethylamino)-1-(methoxymethyl)-2-oxo-ethyl]-(trans-4-methylcyclohexanecarbonyl)amino]-5-(3,3-dimethylbut-1-ynyl)thiophene-2-carboxylic acid] displayed a CC50 at 72 h in series [1] above 100 µM. For the same molecule, the IC50 in series [2] was below 0.1 µM.

In series [1], `COC[C@@H](C(=O)N1CCOCC1)N(C(=O)C1CCCCC1)c1cc(C#CC(C)(C)C)sc1C(=O)O` [Compound 24, 3-[Cyclohexanecarbonyl-[(1S)-1-(methoxymethyl)-2-morpholino-2-oxo-ethyl]amino]-5-(3,3-dimethylbut-1-ynyl)thiophene-2-carboxylic acid] yielded a CC50 at 72 h above 100 µM. In series [2], the IC50 was below 0.1 µM.

As to `CN(C)CCN(C)C(=O)CN(c1cc(C#CC(C)(C)C)sc1C(=O)O)C(=O)[C@H]1CC[C@H](C)CC1` [Compound 118, 3-[[2-[2-Dimethylaminoethyl(methyl)amino]-2-oxo-ethyl]-(trans-4-methylcyclohexanecarbonyl)amino]-5-(3,3-dimethylbut-1-ynyl)thiophene-2-carboxylic acid], the IC50 in series [2] was below 0.1 µM.

Consider `CN1CCN(C(=O)CN(c2cc(C#CC(C)(C)C)sc2C(=O)O)C(=O)[C@H]2CC[C@H](C)CC2)CC1` [Compound 119, 5-(3,3-dimethylbut-1-ynyl)-3-[(trans-4-methylcyclohexanecarbonyl)-[2-(4-methylpiperazin-1-yl)-2-oxo-ethyl]amino]thiophene-2-carboxylic acid], for which the IC50 in series [2] was below 0.1 µM.

For `CC(C)(C)C#Cc1cc(N(C(=O)[C@H]2CC[C@H](C)CC2)[C@H]2CCNC2=O)c(C(=O)O)s1` [Compound 120, 5-(3,3-dimethylbut-1-ynyl)-3-[(trans-4-methylcyclohexanecarbonyl)-[(3S)-2-oxopyrrolidin-3-yl]amino]thiophene-2-carboxylic acid], the IC50 in series [2] was in the range of 0.1 to 1 µM.

What is called CC50 is the concentration at which the toxic effect on the cells reaches its halfway point. A low value points to harm at low concentration.
